In ChEMBL document CHEMBL5620419, “Discovery of new Lenalidomide derivatives as potent and selective GSPT1 degraders” (Eur J Med Chem, 2023):
pEC50, pIC50: −log10 of the molar value. Activity calls are given as the source filed them. The rule behind the calls is not given here.

Columns and labels:
[1] = system: U-937; experiment: Upregulation of cleaved caspase-3 level in human U-937 cells measured after 24 hrs by Western blot analysis; format: functional, cell-based; conditions: dose 10-100 nM
[2] = molecular target: T1, Protein cereblon/Eukaryotic peptide chain release factor GTP-binding subunit ERF3A (Homo sapiens) (UniProt Q96SW2+P15170); experiment: PROTAC activity at CRBN/GSPT1 in human U-937 cells assessed as half life measured upto 24 hrs in presence of cycloheximide by Western blot analysis; format: cell-based
T1 sequence (P15170 whole entry, looked up): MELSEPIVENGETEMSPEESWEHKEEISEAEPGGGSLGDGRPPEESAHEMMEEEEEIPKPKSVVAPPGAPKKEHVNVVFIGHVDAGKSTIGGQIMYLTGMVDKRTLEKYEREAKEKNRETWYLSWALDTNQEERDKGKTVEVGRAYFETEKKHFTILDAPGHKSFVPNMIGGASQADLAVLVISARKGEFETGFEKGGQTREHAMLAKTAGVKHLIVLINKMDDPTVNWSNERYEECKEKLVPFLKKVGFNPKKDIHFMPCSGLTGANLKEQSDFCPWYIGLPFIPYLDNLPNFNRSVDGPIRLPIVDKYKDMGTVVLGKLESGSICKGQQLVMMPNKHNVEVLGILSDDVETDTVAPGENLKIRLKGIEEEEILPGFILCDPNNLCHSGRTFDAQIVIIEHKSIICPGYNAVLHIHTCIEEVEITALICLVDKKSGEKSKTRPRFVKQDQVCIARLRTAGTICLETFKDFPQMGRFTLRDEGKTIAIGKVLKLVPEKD
T1 sequence (Q96SW2 whole entry, looked up): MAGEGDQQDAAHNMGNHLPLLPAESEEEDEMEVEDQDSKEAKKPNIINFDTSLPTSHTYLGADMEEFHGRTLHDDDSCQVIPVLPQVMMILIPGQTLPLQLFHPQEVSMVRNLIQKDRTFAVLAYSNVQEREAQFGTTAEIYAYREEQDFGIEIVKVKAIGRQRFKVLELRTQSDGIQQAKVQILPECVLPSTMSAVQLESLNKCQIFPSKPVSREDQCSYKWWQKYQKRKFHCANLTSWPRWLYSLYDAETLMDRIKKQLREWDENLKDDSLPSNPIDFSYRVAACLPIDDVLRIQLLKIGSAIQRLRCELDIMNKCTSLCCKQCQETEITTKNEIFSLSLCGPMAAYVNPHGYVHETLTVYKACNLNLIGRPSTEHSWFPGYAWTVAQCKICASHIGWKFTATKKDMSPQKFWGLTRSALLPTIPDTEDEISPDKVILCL

[3] = system: U-937; experiment: Induction of apoptosis in human U-937 cells assessed as viable cells at 10 nM measured after 24 hr by Annexin V-FITC/7AAD staining based flow cytometry (reference value: 93.55%); format: functional; conditions: read-out: Activity
[4] = molecular target: Protein cereblon/Zinc finger protein Aiolos (Homo sapiens) (UniProt Q96SW2+Q9UKT9); experiment: PROTAC activity at CRBN/IKZF3 in human U-937 cells at upto 300 nM; format: cell-based
Chain of Protein cereblon/Zinc finger protein Aiolos (Homo sapiens) (Q96SW2 whole entry, looked up): as above
Chain of Protein cereblon/Zinc finger protein Aiolos (Homo sapiens) (Q9UKT9 whole entry, looked up): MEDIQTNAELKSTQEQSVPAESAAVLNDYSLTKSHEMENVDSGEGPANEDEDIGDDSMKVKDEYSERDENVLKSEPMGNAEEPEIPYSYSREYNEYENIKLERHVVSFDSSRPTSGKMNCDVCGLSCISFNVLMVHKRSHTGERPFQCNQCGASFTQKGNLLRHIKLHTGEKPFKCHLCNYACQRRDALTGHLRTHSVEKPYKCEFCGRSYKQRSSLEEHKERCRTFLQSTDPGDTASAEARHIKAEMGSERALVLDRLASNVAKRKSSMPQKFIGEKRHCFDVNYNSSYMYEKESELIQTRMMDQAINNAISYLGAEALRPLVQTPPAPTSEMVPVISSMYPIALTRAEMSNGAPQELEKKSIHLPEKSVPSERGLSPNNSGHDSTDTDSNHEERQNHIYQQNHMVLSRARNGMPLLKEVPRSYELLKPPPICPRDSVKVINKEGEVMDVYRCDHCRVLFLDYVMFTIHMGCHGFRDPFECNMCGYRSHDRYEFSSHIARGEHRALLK

[5] = system: U-937; experiment: Induction of cell cycle arrest in human U-937 cells assessed as accumulation of cells at S phase at 30 nM measured after 24 hrs by propidium iodide staining based flow cytometry analysis (reference value: 6.38%); format: functional
[6] = molecular target: Cereblon/Casein kinase I alpha (Homo sapiens) (UniProt P48729+Q96SW2); experiment: PROTAC activity at CRBN/CK1alpha in human U-937 cells at upto 300 nM by Western blot analysis; format: cell-based
Chain of Cereblon/Casein kinase I alpha (Homo sapiens) (P48729 2-337 limits assumed): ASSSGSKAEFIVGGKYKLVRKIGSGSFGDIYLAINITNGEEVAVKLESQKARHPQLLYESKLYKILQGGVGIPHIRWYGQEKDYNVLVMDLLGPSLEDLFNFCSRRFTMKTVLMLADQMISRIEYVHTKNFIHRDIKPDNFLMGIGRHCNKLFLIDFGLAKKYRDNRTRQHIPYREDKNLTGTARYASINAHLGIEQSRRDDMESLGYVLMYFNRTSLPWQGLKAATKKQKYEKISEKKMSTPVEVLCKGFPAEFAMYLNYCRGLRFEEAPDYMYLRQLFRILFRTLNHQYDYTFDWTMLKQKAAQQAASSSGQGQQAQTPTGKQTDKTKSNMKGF
Chain of Cereblon/Casein kinase I alpha (Homo sapiens) (Q96SW2 whole entry partner): as the sequence (Q96SW2 whole entry, looked up) above

[7] = AUC (0 to t) in ip dosed Sprague-Dawley rat; format: ADME, organism-based; conditions: in vivo
[8] = system: U-937; experiment: Induction of cell cycle arrest in human U-937 cells assessed as accumulation of cells at G0/G1 phase at 30 nM measured after 24 hrs by propidium iodide staining based flow cytometry analysis (reference value: 61.09%); format: functional
[9] = molecular target: T1, Protein cereblon/Eukaryotic peptide chain release factor GTP-binding subunit ERF3A (Homo sapiens); experiment: PROTAC activity at CRBN/GSPT1 in human U-937 cells assessed as degradation of GSPT1 at 100 nM measured after 4 to 24 hrs by Western blot analysis; format: cell-based; conditions: time 4-24 hrs
[10] = molecular target: T1, Protein cereblon/Eukaryotic peptide chain release factor GTP-binding subunit ERF3A (Homo sapiens); experiment: PROTAC activity at CRBN/GSPT1 in human MOLT-4 cells assessed as degradation of GSPT1 at upto 300 nM by Western blot analysis; format: cell-based
[11] = Half life in ip dosed Sprague-Dawley rat; format: ADME, organism-based; conditions: in vivo
[12] = system: U-937; experiment: Upregulation of caspase-9 level in human U-937 cells measured after 24 hrs by Western blot analysis; format: functional, cell-based; conditions: dose 10-100 nM
[13] = molecular target: T1, Protein cereblon/Eukaryotic peptide chain release factor GTP-binding subunit ERF3A (Homo sapiens); experiment: PROTAC activity at CRBN/GSPT1 in human U-937 cells assessed as induction of GSPT1 degradation preincubated with MG132 for 2 hrs followed by compound addition and measured after 6 hrs by Western blot analysis; format: cell-based
[14] = Downregulation of K1C10 level in human U-937 cells assessed as fold change at 0.1 uM measured after 6 hrs; format: functional
[15] = Cmax in oral dosed Sprague-Dawley rat; format: ADME, organism-based; conditions: in vivo
[16] = system: U-937; experiment: Induction of cell cycle arrest in human U-937 cells assessed as accumulation of cells at G2/M phase at 30 nM measured after 24 hrs by propidium iodide staining based flow cytometry analysis (reference value: 32.33%); format: functional
[17] = molecular target: T1, Protein cereblon/Eukaryotic peptide chain release factor GTP-binding subunit ERF3A (Homo sapiens); experiment: PROTAC activity at CRBN/GSPT1 in human U-937 cells assessed as induction of GSPT1 degradation preincubated with MLN4924 for 2 hrs followed by compound addition and measured after 6 hrs by Western blot analysis; format: cell-based
[18] = system: U-937; experiment: Induction of cell cycle arrest in human U-937 cells assessed as accumulation of cells at G2/M phase at 10 nM measured after 24 hrs by propidium iodide staining based flow cytometry analysis (reference value: 32.33%); format: functional
[19] = system: MOLT-4; experiment: Antiproliferative activity against human MOLT-4 cells measured after 72 hrs by CCK-8 method; format: functional, cell-based; conditions: MOLT-4, 72 h
[20] = system: U-937; experiment: Downregulation of CDK6 level in human U-937 cells measured after 24 hrs by Western blot analysis; format: functional, cell-based; conditions: dose 10-100 nM
[21] = Downregulation of RNT2 level in human U-937 cells assessed as fold change at 0.1 uM measured after 6 hrs; format: functional
[22] = Cmax in ip dosed Sprague-Dawley rat; format: ADME, organism-based; conditions: in vivo
[23] = system: MV4-11; experiment: Antiproliferative activity against human MV4-11 cells measured after 72 hrs by CCK-8 method; format: functional, cell-based; conditions: MV4-11, 72 h
[24] = Downregulation of SEC13 level in human U-937 cells assessed as fold change at 0.1 uM measured after 6 hrs; format: functional
[25] = molecular target: T1, Protein cereblon/Eukaryotic peptide chain release factor GTP-binding subunit ERF3A (Homo sapiens); experiment: PROTAC activity at CRBN/GSPT1 in human MV4-11 cells assessed as degradation of GSPT1 at upto 300 nM by Western blot analysis; format: cell-based
[26] = Downregulation of GSPT1 level in human U-937 cells assessed as fold change at 0.1 uM measured after 6 hrs; format: functional
[27] = Downregulation of AMPN level in human U-937 cells assessed as fold change at 0.1 uM measured after 6 hrs; format: functional
[28] = system: U-937; experiment: Induction of apoptosis in human U-937 cells assessed as late apoptotic cells at 100 nM measured after 24 hr by Annexin V-FITC/7AAD staining based flow cytometry (reference value: 1.49%); format: functional
[29] = Downregulation of TIM9 level in human U-937 cells assessed as fold change at 0.1 uM measured after 6 hrs; format: functional
[30] = Downregulation of K2C1 level in human U-937 cells assessed as fold change at 0.1 uM measured after 6 hrs; format: functional
[31] = Downregulation of SCAM2 level in human U-937 cells assessed as fold change at 0.1 uM measured after 6 hrs; format: functional
[32] = system: U-937; experiment: Induction of cell cycle arrest in human U-937 cells assessed as accumulation of cells at G0/G1 phase at 10 nM measured after 24 hrs by propidium iodide staining based flow cytometry analysis (reference value: 61.09%); format: functional
[33] = AUC (0 to t) in oral dosed Sprague-Dawley rat; format: ADME, organism-based; conditions: in vivo
[34] = Downregulation of AIMP2 level in human U-937 cells assessed as fold change at 0.1 uM measured after 6 hrs; format: functional
[35] = system: U-937; experiment: Induction of cell cycle arrest in human U-937 cells assessed as accumulation of cells at G2/M phase at 100 nM measured after 24 hrs by propidium iodide staining based flow cytometry analysis (reference value: 32.33%); format: functional
[36] = system: U-937; experiment: Induction of apoptosis in human U-937 cells assessed as early apoptotic cells at 100 nM measured after 24 hr by Annexin V-FITC/7AAD staining based flow cytometry (reference value: 1.44%); format: functional
[37] = molecular target: T1, Protein cereblon/Eukaryotic peptide chain release factor GTP-binding subunit ERF3A (Homo sapiens); experiment: PROTAC activity at CRBN/GSPT1 in human U-937 cells assessed as degradation of GSPT1 at 300 nM measured after 6 hrs by Western blot analysis relative to control; format: cell-based
[38] = Downregulation of SRP72 level in human U-937 cells assessed as fold change at 0.1 uM measured after 6 hrs; format: functional
[39] = system: U-937; experiment: Induction of apoptosis in human U-937 cells assessed as early apoptotic cells at 10 nM measured after 24 hr by Annexin V-FITC/7AAD staining based flow cytometry (reference value: 1.44%); format: functional
[40] = molecular target: Cereblon/Ikaros (Homo sapiens) (UniProt Q96SW2+Q13422); experiment: PROTAC activity at CRBN/IKZF1 in human U-937 cells at upto 300 nM by Western blot analysis; format: cell-based
[41] = Downregulation of SYIC level in human U-937 cells assessed as fold change at 0.1 uM measured after 6 hrs; format: functional
[42] = molecular target: T1, Protein cereblon/Eukaryotic peptide chain release factor GTP-binding subunit ERF3A (Homo sapiens); experiment: (§1) PROTAC activity at CRBN/GSPT1 in human U-937 cells assessed as degradation of GSPT1 measured after 6 hrs by Western blot analysis; format: cell-based; conditions: dose <= 300.0 nM
[43] = molecular target: Protein cereblon/Eukaryotic peptide chain release factor GTP-binding subunit ERF3A (Homo sapiens, UniProt P15170+Q96SW2); experiment: as §1; format: cell-based
Chain of Protein cereblon/Eukaryotic peptide chain release factor GTP-binding subunit ERF3A (Q96SW2 whole entry): as the sequence (Q96SW2 whole entry, looked up) above
Chain of Protein cereblon/Eukaryotic peptide chain release factor GTP-binding subunit ERF3A (P15170 whole entry): as the sequence (P15170 whole entry, looked up) above

[44] = system: U-937; experiment: Induction of apoptosis in human U-937 cells assessed as late apoptotic cells at 10 nM measured after 24 hr by Annexin V-FITC/7AAD staining based flow cytometry (reference value: 1.49%); format: functional
[45] = system: U-937; experiment: Induction of cell cycle arrest in human U-937 cells assessed as accumulation of cells at S phase at 100 nM measured after 24 hrs by propidium iodide staining based flow cytometry analysis (reference value: 6.38%); format: functional
[46] = system: U-937; experiment: Downregulation of cyclin B1 level in human U-937 cells measured after 24 hrs by Western blot analysis; format: functional, cell-based; conditions: dose 10-100 nM
[47] = system: U-937; experiment: Induction of apoptosis in human U-937 cells assessed as necrotic cells at 10 nM measured after 24 hr by Annexin V-FITC/7AAD staining based flow cytometry (reference value: 3.52%); format: functional
[48] = system: U-937; experiment: Induction of apoptosis in human U-937 cells assessed as necrotic cells at 30 nM measured after 24 hr by Annexin V-FITC/7AAD staining based flow cytometry (reference value: 3.52%); format: functional
[49] = system: U-937; experiment: Induction of cell cycle arrest in human U-937 cells assessed as accumulation of cells at G0/G1 phase at 100 nM measured after 24 hrs by propidium iodide staining based flow cytometry analysis (reference value: 61.09%); format: functional
[50] = system: U-937; experiment: Induction of apoptosis in human U-937 cells assessed as early apoptotic cells at 30 nM measured after 24 hr by Annexin V-FITC/7AAD staining based flow cytometry (reference value: 1.44%); format: functional
[51] = system: U-937; experiment: Induction of apoptosis in human U-937 cells assessed as viable cells at 100 nM measured after 24 hr by Annexin V-FITC/7AAD staining based flow cytometry (reference value: 93.55%); format: functional; conditions: read-out: Activity
[52] = system: U-937; experiment: Antiproliferative activity against human U-937 cells measured after 72 hrs by CCK-8 method; format: functional, cell-based; conditions: U-937, 72 h
[53] = system: U-937; experiment: Induction of apoptosis in human U-937 cells assessed as viable cells at 30 nM measured after 24 hr by Annexin V-FITC/7AAD staining based flow cytometry (reference value: 93.55%); format: functional; conditions: read-out: Activity
[54] = system: U-937; experiment: Induction of apoptosis in human U-937 cells assessed as late apoptotic cells at 30 nM measured after 24 hr by Annexin V-FITC/7AAD staining based flow cytometry (reference value: 1.49%); format: functional
[55] = molecular target: T1, Protein cereblon/Eukaryotic peptide chain release factor GTP-binding subunit ERF3A (Homo sapiens); experiment: PROTAC activity at CRBN/GSPT1 in human U-937 cells assessed as increase in ubiquitination of GSPT1 at 100 nM preincubated with MG-132 for 2 hrs followed by compound treatment and measured after 24 hrs by coimmunoprecipitation analysis; format: cell-based
[56] = system: U-937; experiment: Induction of cell cycle arrest in human U-937 cells assessed as accumulation of cells at S phase at 10 nM measured after 24 hrs by propidium iodide staining based flow cytometry analysis (reference value: 6.38%); format: functional
[57] = system: U-937; experiment: Induction of apoptosis in human U-937 cells assessed as necrotic cells at 100 nM measured after 24 hr by Annexin V-FITC/7AAD staining based flow cytometry (reference value: 3.52%); format: functional

SMILES: COCCN(C)Cc1cc(NC(=O)CCc2ccc3c(c2)C(=O)N(C2CCC(=O)NC2=O)C3)cc(Cl)c1C (configuration not stated)
- Activity [1]: Dose-Dependent Effect
- T1/2 [2]: 6.3 h
- viability at 0.01 µM [3]: 93.2%
- Activity [4]: inactive
- Activity [5]: 9.99%
- Activity [6]: inactive
- AUC(0-t) [7]: 8160 ng·h/mL
- Activity [8]: 63.89%
- Activity [9]: Active
- Activity [10]: Active
- half-life [11]: 1.25 h
- Activity [12]: Dose-Dependent Effect
- Activity [13]: inactive
- log(activity) [14]: -9.04
- Cmax [15]: 671 ng/mL
- Activity [16]: 26.07%
- Activity [17]: inactive
- Activity [18]: 31.72%
- pIC50 [19]: 8.22
- Activity [20]: Dose-Dependent Effect
- log(activity) [21]: -3.36
- Cmax [22]: 4270 ng/mL
- pIC50 [23]: 7.57
- log(activity) [24]: -3.32
- Activity [25]: Active
- log(activity) [26]: -3.32
- log(activity) [27]: -3.63
- Activity [28]: 27.48%
- log(activity) [29]: -3.32
- log(activity) [30]: -5.03
- log(activity) [31]: -3.32
- Activity [32]: 50.22%
- AUC(0-t) [33]: 1050 ng·h/mL
- log(activity) [34]: -3.32
- Activity [35]: 20.68%
- Activity [36]: 23.01%
- Emax [37]: 81.7%
- log(activity) [38]: -3.32
- Activity [39]: 1.9%
- Activity [40]: inactive
- log(activity) [41]: -3.32
- Activity [42]: Dose-Dependent Effect
- pEC50 [43]: 7.46
- Activity [44]: 2.34%
- Activity [45]: 6.73%
- Activity [46]: Dose-Dependent Effect
- Activity [47]: 2.73%
- Activity [48]: 5.84%
- Activity [49]: 71.09%
- Activity [50]: 14.2%
- viability at 0.1 µM [51]: 44.9%
- pIC50 [52]: 7.72
- viability at 0.03 µM [53]: 65.5%
- Activity [54]: 14.45%
- Activity [55]: Active
- Activity [56]: 8.87%
- Activity [57]: 5.5%
